Laboratory results reported in PMC12566046, “Arylpiperazinyl-Benzocycloheptapyrrole-Carboxamides Endowed with Dual Anticancer and Antiviral Activities” (Molecules, 2025).

Tests used:
in vitro = settings: African green monkey
[1] = test system: ZIKV, strain Brazil/2016/INMI1; assay: ZIKV viral yield reduction assay on Huh-7 cells; format: cell-based, Zika virus; settings: Zika virus; preliminary screening (50, 5, 0.5 μM), Huh-7; read-out: ZIKV/Huh‐7 EC50
How it was run: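 Huh-7 cells infected with ZIKV at MOI 1 for 2 h at 37 °C, compounds added right after infection in duplicate at 50, 5 and 0.5 μM. Supernatants taken at 48 h and titrated by plaque assay on VERO E6 under carboxymethyl cellulose with crystal violet staining. % inhibition from PFU/mL versus DMSO-treated control; SI = CC50/EC50.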

[2] = test system: HT29 (colon cancer cell line); assay: NCI-60 single-dose assay; format: cell-based, human
How it was run: (§1)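 Read-out is cytotoxic activity from a single-concentration test; the panel spans nine human cancer types, including leukemia, lung, colon and renal.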

[3] = test system: UACC-257 (melanoma cell line); assay: NCI-60 single-dose assay; format: cell-based, human
How it was run: as §1

[4] = test system: EKVX (non-small cell lung cancer cell line); assay: NCI-60 single-dose assay; format: cell-based, human; settings: Homo sapiens, read-out: growth inhibition (GI%) and cytotoxicity (negative values)
How it was run: as §1

[5] = test system: NCI-H522 (non-small cell lung cancer cell line); assay: NCI-60 single-dose assay; format: cell-based, human; settings: Homo sapiens, NCI-H522, read-out: growth inhibition (GI%) and cytotoxicity (negative values)
How it was run: as §1

[6] = test system: RXF 393 (renal cancer cell line); assay: NCI-60 single-dose assay; format: cell-based, human
How it was run: as §1

[7] = test system: SK-MEL-28 (melanoma cell line); assay: NCI-60 single-dose assay; format: cell-based, human
How it was run: as §1

[8] = test system: MCF-7 (breast cancer cell line); assay: NCI-60 single-dose assay; format: cell-based, human; settings: Homo sapiens, MCF7, read-out: growth inhibition (GI%) and cytotoxicity (negative values), MCF-7, 10^−5 M
How it was run: as §1

[9] = test system: MALME-3M (melanoma cell line); assay: NCI-60 single-dose assay; format: cell-based, human
How it was run: as §1

[10] = test system: CAKI-1 (renal cancer cell line); assay: NCI-60 single-dose assay; format: cell-based, human; settings: Homo sapiens, CAKI-1, read-out: growth inhibition (GI%) and cytotoxicity (negative values)
How it was run: as §1

[11] = test system: SN12C (renal cancer cell line); assay: NCI-60 single-dose assay; format: cell-based, human; settings: Homo sapiens, read-out: growth inhibition (GI%) and cytotoxicity (negative values)
How it was run: as §1

[12] = test system: MOLT-4 (leukemia cell line); assay: NCI-60 single-dose assay; format: cell-based, human; settings: Homo sapiens, MOLT-4, read-out: growth inhibition (GI%) and cytotoxicity (negative values)
How it was run: as §1

[13] = test system: 786-0 (renal cancer cell line); assay: NCI-60 single-dose assay; format: cell-based, human; settings: Homo sapiens, 786-0, read-out: growth inhibition (GI%) and cytotoxicity (negative values)
How it was run: as §1

[14] = test system: NCI-H460 (non-small cell lung cancer cell line); assay: NCI-60 single-dose assay; format: cell-based, human; settings: Homo sapiens, NCI-H460, read-out: growth inhibition (GI%) and cytotoxicity (negative values)
How it was run: as §1

[15] = test system: SK-MEL-5 (melanoma cell line); assay: NCI-60 single-dose assay; format: cell-based, human; settings: human
How it was run: as §1

[16] = test system: UO-31 (renal cancer cell line); assay: NCI-60 single-dose assay; format: cell-based, human; settings: Homo sapiens, UO-31, read-out: growth inhibition (GI%) and cytotoxicity (negative values)
How it was run: as §1

[17] = test system: NCI-H226 (non-small cell lung cancer cell line); assay: NCI-60 single-dose assay; format: cell-based, human; settings: Homo sapiens, NCI-H226, read-out: growth inhibition (GI%) and cytotoxicity (negative values)
How it was run: as §1

[18] = test system: SK-MEL-2 (melanoma cell line); assay: NCI-60 single-dose assay; format: cell-based, human; settings: Homo sapiens, SK-MEL-2, read-out: growth inhibition (GI%) and cytotoxicity (negative values)
How it was run: as §1

M14 (melanoma cell line) = assay: NCI-60 single-dose assay; format: cell-based, human; settings: human
How it was run: as §1

[19] = test system: RPMI-8226 (leukemia cell line); assay: NCI-60 single-dose assay; format: cell-based, human; settings: Homo sapiens, RPMI-8226, read-out: growth inhibition (GI%) and cytotoxicity (negative values)
How it was run: as §1

[20] = test system: NCI-H23 (non-small cell lung cancer cell line); assay: NCI-60 single-dose assay; format: cell-based, human; settings: Homo sapiens, NCI-H23, read-out: growth inhibition (GI%) and cytotoxicity (negative values)
How it was run: as §1

[21] = test system: MDA-MB-231/ATCC (breast cancer cell line); assay: NCI-60 single-dose assay; format: cell-based, human; settings: Homo sapiens, MDA-MB-231, read-out: growth inhibition (GI%) and cytotoxicity (negative values)
How it was run: as §1

| SMILES | CC50 at 24 h (in vitro) [µM] | EC50 [1] [µM] | inhibition at 10 µM [4] [%] | inhibition at 10 µM [5] [%] | inhibition at 10 µM [8] [%] | inhibition at 10 µM [10] [%] | inhibition at 10 µM [11] [%] | inhibition at 10 µM [12] [%] | inhibition at 10 µM [13] [%] | inhibition at 10 µM [14] [%] | growth inhibition (GI%) and cytotoxicity (negative values) [15] [%] | inhibition at 10 µM [16] [%] | inhibition at 10 µM [17] [%] | inhibition at 10 µM [18] [%] | growth inhibition (GI%) and cytotoxicity (negative values) (M14 (melanoma cell line)) [%] | inhibition at 10 µM [19] [%] | inhibition at 10 µM [20] [%] | inhibition at 10 µM [21] [%] | further results |
| --- | --- | --- | --- | --- | --- | --- | --- | --- | --- | --- | --- | --- | --- | --- | --- | --- | --- | --- | --- |
| O=C(NCCCN1CCN(c2ccccc2)CC1)c1cc2c([nH]1)-c1ccccc1CCC2 [Compound 10, N-(3-(4-Phenylpiperazin-1-yl)propyl)-1,4,5,6-tetrahydrobenzo[6,7]cyclohepta[1,2-b]pyrrole-2-carboxamide] | 55.7 | 3.59 | 74.2 | 71.4 | 80.2 | 89.4 | < 60 | < 60 | 68.7 | 90.7 | −72.58 | < 60 | 75.2 | 75 | −59.25 | < 60 | < 60 | < 60 | growth inhibition (GI%) and cytotoxicity (negative values) ([2]; human): −2.47%; growth inhibition (GI%) and cytotoxicity (negative values) ([3]; human): −8.50%; growth inhibition (GI%) and cytotoxicity (negative values) ([6]; human): −8.69%; growth inhibition (GI%) and cytotoxicity (negative values) ([7]; human): −29.31%; growth inhibition (GI%) and cytotoxicity (negative values) ([9]; human): −72.64% |
| CCOc1ccccc1N1CCN(CCNC(=O)c2c(Cl)[nH]c3c2CCCc2ccccc2-3)CC1 [Compound 17] | 37.2 | 4.46 | 87.5 | 65.7 | 82.2 | 71.6 | 60.7 | 95.5 | < 60 | 70 | −88.73 | 69.3 | 60.4 | < 60 | −7.74 | < 60 | < 60 | < 60 | inhibition at 10 µM ([2]; Homo sapiens, HT-29, read-out: growth inhibition (GI%) and cytotoxicity (negative values)): 81.5%; inhibition at 10 µM ([3]; Homo sapiens, UACC-257, read-out: growth inhibition (GI%) and cytotoxicity (negative values)): 72%; inhibition at 10 µM ([6]; Homo sapiens, RXF 393, read-out: growth inhibition (GI%) and cytotoxicity (negative values)): 62.1%; inhibition at 10 µM ([7]; Homo sapiens, SK-MEL-28, read-out: growth inhibition (GI%) and cytotoxicity (negative values)): 71.5%; inhibition at 10 µM ([9]; Homo sapiens, Malme-3M, read-out: growth inhibition (GI%) and cytotoxicity (negative values)): 90.3% |
